Several values for one entry are separate records, joined by “and”; a condition that tells them apart may be missing. Equal entries are not always repeated. Where two headings read alike, the source gives them in different places.
Assays:
[1] = test system: rats; assay: Conditioned place preference; conditions: rat, in vivo
[2] = 24-hour pharmacokinetic study, intravenous route; format: in vivo, male Sprague Dawley rats; conditions: 20 mg/kg IV; for Vd: read-out: Vz
Method: A single intravenous 20 mg/kg (corresponding to ˜17.1 mg/kg expressed as the free base corrected for purity) bolus dose of SOC-1 test item formulated in Hartman's solution was administered to three adult male Sprague Dawley rats. A total of 10 blood samples were collected from each rat at time points ranging from pre-dose to 24 hours post-dose. The blood samples were subsequently processed to plasma and analysed for plasma concentrations of SOC-1 using a screening LC-MS/MS method (assay range=50-5000 ng/mL). Pharmacokinetic parameters were estimated from the plasma concentration versus time data by non-compartmental methods using Phoenix 64 WinNonlin® software.
Prior to treatments the rats were subject to surgery to cannulate the jugular vein (for dose administration, IV) and femoral artery (for blood sample collection, IA) with exteriorisation of the cannulas per test facility SOPs. Following recovery from surgery the rats were transferred to a Culex system for dose administration and blood sampling (with both lines tended per test facility SOPs).
The intravenous treatments were administered via the jugular cannula with a dosing volume of 4.0 mL/kg on the day following surgery. The treatments were followed by ˜200 μL vehicle to ensure a full dose was delivered to the animals.
Blood samples (˜250 μl) were collected in lithium heparin tubes from the IA cannula at the following time points: pre-dose, 2, 5, 10, 30, 60 minutes, 2, 4, 8 and 24 hours post-dose
Blood samples were kept on ice immediately after collection to minimize degradation and centrifuged as soon as possible at approximately 4000×rcf for 10 min. Pre-dose samples were centrifuged separately prior to dosing. The plasma was then transferred to polypropylene tubes and stored frozen at −80° C.
Plasma concentrations of SOC-1 were determined using a screening LC-MS/MS method with a following liquid/liquid extraction. Briefly, 50 μL aliquots of the test samples and calibration standards were mixed with 1 mL of hexane:dichloromethane (1:1) for 5 minutes following the addition of 10 μl of internal standard, then centrifuged and the organic phase decanted and dried under nitrogen. The samples were then reconstituted with 0.5 mL of 0.1% formic acid in 30% methanol in deionised water and 0.2 mL transferred to a 96 well plate. A 5 μL aliquot of this sample was then analysed using an ABSciex API 4000 MS/MS coupled to a Shimadzu Prominence HPLC. The HPLC gradients included 0.1% formic acid in deionised water (Mobile Phase A) and 0.1% formic acid in methanol (Mobile Phase B). The LC-MS/MS instrument settings are summarised in Appendix 2. The samples were analysed with calibrated samples (50 to 5000 ng/mL) and concentration data determined by back calculation from the standard curve.
Group mean±standard error values for plasma concentration versus time values were determined using Phoenix 64 WinNonlin software. The following pharmacokinetic parameters were also calculated by non-compartmental methods, using Phoenix 64 WinNonlin software: • Rsq—Coefficient of association for the terminal elimination phase (R2). • Lambda—Terminal elimination rate constant associated with the terminal (log-linear) portion of the curve (1/h). • T1/2—Terminal elimination half-life (h) • C0—Initial concentration at time 0 min (ng/mL) determined by back-extrapolating from the first two measured concentration values. • Tmax—Time to maximum plasma concentration following extravascular administration. • Cmax—Maximum plasma concentration following extravascular administration • AUClast—Area under the curve from the time of dosing (Dosing time, time 0 min) to the last measurable concentration (ng·h/mL). • AUCinf—AUC from Dosing time extrapolated to infinity, based on the last observed concentration (obs). (ng·h/mL). • AUC % Extrap—Percentage of AUCinf due to extrapolation from time of last measurable concentration to infinity. • Vz—Volume of distribution (L/kg). • Cl—Total body clearance (L/h/kg). […]

[3] = molecular target: V2 (Homo sapiens, UniProt P30518); assay: Orthosteric binding, AVP receptors
Chain of V2 (P30518 whole entry): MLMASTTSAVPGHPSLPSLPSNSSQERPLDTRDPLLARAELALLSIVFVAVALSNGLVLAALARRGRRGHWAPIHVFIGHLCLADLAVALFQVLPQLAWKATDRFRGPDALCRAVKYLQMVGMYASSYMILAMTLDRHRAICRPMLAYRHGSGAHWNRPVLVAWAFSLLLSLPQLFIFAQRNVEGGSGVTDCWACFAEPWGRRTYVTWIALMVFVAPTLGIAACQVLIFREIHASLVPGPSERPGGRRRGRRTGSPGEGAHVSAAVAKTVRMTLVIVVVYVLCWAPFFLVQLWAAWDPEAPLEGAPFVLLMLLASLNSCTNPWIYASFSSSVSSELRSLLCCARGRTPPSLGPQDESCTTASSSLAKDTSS

[4] = test system: Fos-positive cells in brain regions of interest; assay: Fos immunohistochemistry in rat brain; format: in vivo, male Wistar rats
Method: Fos immunohistochemistry was used to identify the neural “signature” of SOC-1 (5 mg/kg) in rat brain relative to injections of peripheral oxytocin (OT) (1 mg/kg). SOC-1 produces a similar overall pattern of neural activation and behavioural effects as OT. However, the effects are much larger and additional areas are activated by SOC-1 that are implicated in the regulation of social behaviour (e.g. lateral septum, medial preoptic area and supraoptic nucleus). SOC-1 produces powerful activation of OT-containing neurons in both the supraoptic (FIG. 6: (A)=vehicle; (B)=oxytocin; and (C)=SOC-1) and paraventricular nucleus of the hypothalamus.

[5] = molecular target: V1B (Homo sapiens, UniProt P47901); assay: Orthosteric binding, AVP receptors
Chain of V1B (P47901 whole entry): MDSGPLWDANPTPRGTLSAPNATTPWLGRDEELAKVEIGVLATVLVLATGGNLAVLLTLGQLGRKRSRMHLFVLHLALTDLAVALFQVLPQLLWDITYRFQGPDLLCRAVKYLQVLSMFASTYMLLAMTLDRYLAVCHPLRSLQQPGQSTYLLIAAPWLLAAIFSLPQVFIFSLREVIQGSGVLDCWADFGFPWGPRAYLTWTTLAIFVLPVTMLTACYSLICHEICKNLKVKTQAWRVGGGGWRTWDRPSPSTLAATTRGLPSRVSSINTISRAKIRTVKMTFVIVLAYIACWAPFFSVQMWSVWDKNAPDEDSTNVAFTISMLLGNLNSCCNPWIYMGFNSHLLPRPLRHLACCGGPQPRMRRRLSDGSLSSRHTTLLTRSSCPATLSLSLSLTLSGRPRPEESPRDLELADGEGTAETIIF

[6] = male, Sprague Dawley, rat, in vivo, Mean, N 3
[7] = male, Sprague Dawley, rat, plasma, iv, 20 mg/kg, individual rats

## Cl.Cn1ncc2c1Nc1ccccc1NC2 [SOC-1]
[1]
  conditioned place preference: does not produce a conditioned place preference
[2]
  tolerability, morbidity or mortality: tolerated and there were no findings of morbidity or mortality
[2]; 2 minutes post-dose, individual rats #1-#3
  Plasma SOC-1: 12600 ng/mL and 16500 ng/mL
[2]; 5 minutes post-dose, individual rats #1-#3
  Plasma SOC-1: 13100 ng/mL and 12200 ng/mL
[2]; 10 minutes post-dose, individual rats #1-#3
  Plasma SOC-1: 10900 ng/mL and 11700 ng/mL
[2]; 30 minutes post-dose, individual rats #1-#3
  Plasma SOC-1: 8790 ng/mL and 8120 ng/mL
[2]; 1 hour (60 minutes) post-dose, individual rats #1-#3
  Plasma SOC-1: 6480 ng/mL and 6310 ng/mL
[2]; 2 hours post-dose, individual rats #1-#3
  Plasma SOC-1: 3610 ng/mL and 2980 ng/mL
[2]; 4 hours post-dose, individual rats #1-#3
  Plasma SOC-1: 115 ng/mL and 286 ng/mL and 97.3 ng/mL
[2]; 8 hours post-dose, individual rats #1-#3
  Plasma SOC-1: BLOQ^a) (below lower limit of quantitation of 50 ng/mL)
[2]; 24 hours post-dose, individual rats #1-#3
  Plasma SOC-1: BLOQ^a) (below lower limit of quantitation of 50 ng/mL)
[2]; Mean, N 3
  AUC % Extrap: 0.803%
  Lambda: 1.28 h⁻¹
[2]; individual rats
  AUC % Extrap: 0.559% and 1.45% and 0.398%
  AUCinf: 18400 ng·h/mL and 17000 ng·h/mL
  AUClast: 18100 ng·h/mL and 17000 ng·h/mL
  C0: 12600 ng/mL and 20100 ng/mL
  Cl: 15.5 mL/min/kg and 16.7 mL/min/kg
  Lambda: 1.33 h⁻¹ and 1.07 h⁻¹ and 1.44 h⁻¹
  T1/2: 38.8 min and 29 min
  Vz: 0.868 L/kg and 0.699 L/kg
[2]; [6]
  AUC(0-inf): 17000 ng·h/mL
  clearance: 16.8 mL/min/kg
  half-life: 33 min
  Vd: 0.799 L/kg
[2]; male, Sprague Dawley, rat, in vivo, Mean, N 3, read-out: C0
  C0: 18200 ng/mL
[2]; male, Sprague Dawley, rat, plasma, intravenous, 20 mg/kg, 2 minutes post-dose, individual rats #1-#3, read-out: Plasma SOC-1
  concentration at 2 min: 17200 ng/mL
[2]; male, Sprague Dawley, rat, plasma, intravenous, 20 mg/kg, 5 minutes post-dose, individual rats #1-#3, read-out: Plasma SOC-1
  concentration at 5 min: 11900 ng/mL
[2]; male, Sprague Dawley, rat, plasma, intravenous, 20 mg/kg, 10 minutes post-dose, individual rats #1-#3, read-out: Plasma SOC-1
  concentration at 10 min: 12800 ng/mL
[2]; male, Sprague Dawley, rat, plasma, intravenous, 20 mg/kg, 30 minutes post-dose, individual rats #1-#3, read-out: Plasma SOC-1
  concentration at 30 min: 7120 ng/mL
[2]; male, Sprague Dawley, rat, plasma, intravenous, 20 mg/kg, 1 hour (60 minutes) post-dose, individual rats #1-#3, read-out: Plasma SOC-1
  concentration at 1 h: 5720 ng/mL
[2]; male, Sprague Dawley, rat, plasma, intravenous, 20 mg/kg, 2 hours post-dose, individual rats #1-#3, read-out: Plasma SOC-1
  concentration at 2 h: 2310 ng/mL
[2]; male, Sprague Dawley, rat, plasma, iv, 20 mg/kg, Mean, N 3
  AUC(0-t): 16800 ng·h/mL
[2]; [7]
  AUC(0-inf): 15500 ng·h/mL
  AUC(0-t): 15400 ng·h/mL
  clearance: 18.5 mL/min/kg
  half-life: 31.3 min
  Vd: 0.831 L/kg
[2]; male, Sprague Dawley, rat, plasma, iv, 20 mg/kg, individual rats, read-out: C0
  C0: 21900 ng/mL
[3]
  affinity for the orthosteric binding site of V2: Nor does SOC-1 show any affinity
[4]; 5 mg/kg
  Fos expression in the oxytocin-positive cells in the supraoptic nucleus of the hypothalamus (SON): strongly activates Fos expression
[4]; OT 1 mg/kg, SOC-1 5 mg/kg
  Mean number of Fos-positive cells, BNST (dorsolateral division): 10.25
  Mean number of Fos-positive cells, BNST (middle anterior part)): 7
  Mean number of Fos-positive cells, Central nucleus of the amygdala: 14.33
  Mean number of Fos-positive cells, Lateral Parabrachial nucleus: 12.91
  Mean number of Fos-positive cells, Lateral septum (ventral): 34.17
  Mean number of Fos-positive cells, Locus Ceruleus: 8.08
  Mean number of Fos-positive cells, Medial preoptic area: 10.30
  Mean number of Fos-positive cells, Median preoptic nucleus: 7.08
  Mean number of Fos-positive cells, Nucleus of Solitary Tract: 17.58
  Mean number of Fos-positive cells, PAG (ventrolateral): 8.58
  Mean number of Fos-positive cells, Paraventircular nucleus: 47.18
  Mean number of Fos-positive cells, Supraoptic nucleus: 15.42
  Mean percent of OT cells that were Fos positive, Paraventircular nucleus: 23.41%
  Mean percent of OT cells that were Fos positive, Supraoptic nucleus: 32.59%
[5]
  affinity for the orthosteric binding site of V1B: Nor does SOC-1 show any affinity

From US11890287B2, “Therapeutic compounds and compositions for treating social disorders and substance use disorders” (Kinoxis Therapeutics Pty Ltd, priority 2015, dated 2024)
